For the assay, the system named is Type III protein secretion of the chimeric SopE‘-’Bla polypeptide (SPI1 type III protein secretion system). Description: Primary assay: Type III protein secretion of the chimeric SopE'-'Bla polypeptide by Salmonella enterica. The class given is cell-based. To be noted: read-out: SopE IC50(μM). An excerpt:
Primary assay: Type III protein secretion of the chimeric SopE‘-’Bla polypeptide by Salmonella enterica. This procedure is a cell-based assay that measures the type III-dependent secretion by Salmonella enterica of a plasmid-encoded chimeric polypeptide whose synthesis can be regulated, and which is endowed with an enzymatic activity that can be monitored colorimetrically by hydrolysis of a substrate that is unable to penetrate into the bacterial cytoplasm within the time constraints of the reaction. Thus, the colormetric reaction is not influenced by SopE‘-’Bla polypeptide in the bacterial cytplasm. Instead, it effectively measures the amount of polypeptide that has been secreted from the S. enterica cytoplasm to the extracellular medium via type III system protein secretion.
The SopE‘-’Bla recombinant polypeptide consists of two functionally distinct domains spliced together. The N-terminus domain is encoded by a polynucleotide region specifying the signal for type III secretion of the SopE polypeptide of S. enterica, an effector of the SPI1 type III protein secretion system. The C-terminus domain of SopE‘-’Bla consists of a 263 amino acid peptide sequence that corresponds to the TEM-1 β-lactamase expressed by plasmid pBR322 but without its N-terminal signal sequence. The TEM-1 β-lactamase part of the SopE‘-’Bla chimeric polypeptide is used as a reporter enzyme. It is capable of hydrolyzing nitrocefin resulting in a product whose accumulation can be monitored by colorimetric detection. The secretion of the SopE‘-’Bla chimeric polypeptide from the cytoplasm to the extracellular medium is dependent on type III protein secretion.
For this procedure, cells grown under conditions known to favor a functional SPI1 secretion system are induced for expression of the SopE‘-’Bla protein and grown either in the presence or in the absence of putative inhibitors for determined time. Nitrocefin is then added to the various cultures and its hydrolysis are used for quantitation. An inhibitor of Type III protein secretion is generally a compound that reduces the signal of the enzymatic reaction by decreasing the amount of SopE‘-’Bla secreted into the extracellular medium.
The term IC50 denotes the concentration needed to halve the response being measured. `O=C(N[C@@H](CSCc1ccccc1)C(=O)O)/C(=C\c1ccc2ccccc2c1)NC(=O)c1ccc(Br)cc1` [Compound 45, (R)-3-Benzylsulfanyl-2-[2-(4-bromobenzoylamino)-3-naphthalen-2-yl-acryloylamino]propionic acid]: the IC50 is 81.6 µM.

With `O=C(N[C@@H](CSCc1ccccc1)C(=O)O)C(=Cc1ccc2ccccc2c1)NC(=O)c1ccc(I)cc1` [Compound 46, (R)-3-Benzylsulfanyl-2-[2-(4-iodobenzoylamino)-3-naphthalen-2-yl-acryloylamino]propionic acid], the IC50 amounted to 28.6 µM.

On to `O=C(NN(Cc1cccc(C(F)(F)F)c1)C(=O)NC(Cc1ccc(Cl)cc1)C(=O)O)c1ccc(-c2ccccc2)cc1` (centres unmarked) [Compound 51, 4-Biphenylcarboxylic acid-N′-[(3-trifluoromethylphenyl)methyl]-N′-[[[2-(4-chlorophenyl)-1-carboxyethyl]amino]carbonyl]hydrazide], for which the 50% inhibitory concentration (IC50) is 8 µM.

As to `O=C(NN(Cc1ccc(Cl)c(C(F)(F)F)c1)C(=O)NC(Cc1ccc(Cl)cc1)C(=O)O)c1ccc(-c2ccccc2)cc1` (centres unmarked) [Compound 52, 4-Biphenylcarboxylic acid-N′-[(4-chloro-3-trifluoromethylphenyl)methyl]-N′-[[[2-(4-chlorophenyl)-1-carboxyethyl]amino]carbonyl]hydrazide], the half-inhibitory concentration (IC50) was determined as 3.1 µM.

On to `O=C(N[C@@H](CSCc1ccccc1)C(=O)O)/C(=C\c1ccc(OCc2ccncc2)cc1)NC(=O)c1ccc(C(F)(F)F)cc1` [Compound 59, (R)-3-Benzylsulfanyl-2-[3-[4-(pyridin-4-yl-methoxy)phenyl]-2-(4-trifluoromethyl-benzoylamino)acryloylamino]propionic acid], for which the IC50 amounted to 73.4 µM.

For `O=C(NC(Cc1ccc(Br)cc1)C(=O)O)/C(=C\c1cccc(C(F)(F)F)c1)NC(=O)c1ccc(-c2ccccc2)cc1` (centres unmarked) [Compound 60, 2-[2-[(Biphenyl-4-carbonyl)amino]-3-(3-trifluoromethylphenyl)acryloylamino]-3-(4-bromophenyl)propionic acid], the IC50 was 9.2 µM.

With `O=C(NC(=Cc1cccc(C(F)(F)F)c1)C(=O)N1C(c2ccc(F)cc2)SC[C@H]1C(=O)O)c1ccc(-c2ccccc2)cc1` (stereo partly drawn) [Compound 61, (4R)-3-[2-[(Biphenyl-4-carbonyl)amino]-3-(3-trifluoromethylphenyl)acryloyl]-2-(4-fluorophenyl)thiazolidine-4-carboxylic acid], the half-maximal inhibitory concentration (IC50) came out at 3.7 µM.

`O=C(N[C@H](CSCc1ccccc1)C(=O)O)/C(=C\c1ccc(C(F)(F)F)cc1)NC(=O)c1cc2ccccc2s1` [Compound 64, (S)-2-[2-[(Benzo[b]thiophene-2-carbonyl)amino]-3-(4-trifluoromethylphenyl)-acryloylamino]-3-benzylsulfanylpropionic acid]: the half-maximal inhibitory concentration (IC50) turned out to be 49.4 µM.

Turning to `O=C(N[C@H](COCc1ccccc1)C(=O)O)/C(=C\c1ccc(C(F)(F)F)cc1)NC(=O)c1cc2ccccc2s1` [Compound 65, (R)-2-[2-[(Benzo[b]thiophene-2-carbonyl)amino]-3-(4-trifluoromethylphenyl)-acryloylamino]-3-benzyloxypropionic acid], the half-inhibitory concentration (IC50) worked out at 88 µM.

As for `O=C(N[C@@H](Cc1ccc(Cl)cc1)C(=O)O)/C(=C\c1ccc(Cl)c(Cl)c1)NC(=O)c1cc2ccccc2s1` [Compound 66, (S)-2-[2-[(Benzo[b]thiophene-2-carbonyl)amino]-3-(3,4-dichlorophenyl)-acryloylamino]-3-(4-chlorophenyl)propionic acid], the IC50 turned out to be 19 µM.

Take `O=C(N[C@H](CSCc1ccccc1)C(=O)O)/C(=C\c1ccc(Cl)c(Cl)c1)NC(=O)c1cc2ccccc2s1` [Compound 67, (S)-2-[2-[(Benzo[b]thiophene-2-carbonyl)amino]-3-(3,4-dichlorophenyl)-acryloylamino]-3-benzylsulfanylpropionic acid]: the IC50 was found to be 27 µM.

The record behind these values is patent US20050250819A1 (priority 2004, published 2005).
